± gives the standard deviation of the averaged measurements.
Key:
Assay in all cases: level (log10 ratio to DMSO vehicle control); higher = higher biomarker level / cell amount than vehicle control
Details in all cases: in DMSO
[1] = compound: O=C(Cl)C(F)(F)C(F)(F)C(F)(F)C(=O)Cl [Hexafluoroglutaryl chloride]
Method: (§1)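 BioMAP Diversity Plus panel of 12 human primary cell co-culture systems (3C, 4H, LPS, SAg, BT, BF4T, BE3C, CASM3C, HDF3CGF, KF3CT, MyoF, Mphg). Compounds were added 1 h before stimulation and left for 24 h (MyoF 48 h; BT 72 h for soluble read-outs or 6 d for IgG). Biomarkers were read by ELISA, cytotoxicity by SRB, PBMC viability and proliferation by Alamar Blue. Each well value was divided by the mean of 8 DMSO control wells on the same plate and log10 transformed; duplicate blinded samples were tested at 4 concentrations.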

[2] = compound: O=C(CC(=O)C(F)(F)C(F)(F)C(F)(F)F)c1cccs1 [(Perfluorobutyryl)-2-thenoylmethane]
Method: as §1

[3] = compound: OCCCCC(F)(F)C(F)(F)C(F)(F)C(F)(F)F [4:4 Fluorotelomer alcohol]
Method: as §1

[4] = compound: O=S(=O)(O)CCC(F)(F)C(F)(F)C(F)(F)C(F)(F)F [4:2 Fluorotelomer sulfonic acid]
Method: as §1

[5] = compound: C=C(C)C(=O)OCC(F)(F)C(F)(F)C(F)(F)F [2,2,3,3,4,4,4-Heptafluorobutyl methacrylate]
Method: as §1

Methotrexate = compound: CN(Cc1cnc2nc(N)nc(N)c2n1)c1ccc(C(=O)N[C@@H](CCC(=O)O)C(=O)O)cc1 [Methotrexate]
Method: as §1

Test System | level (log10) ([1]; 6700 nM) | level (log10) ([1]; 20000 nM) | level (log10) ([1]; 60000 nM) | level (log10) ([2]; 6700 nM) | level (log10) ([2]; 20000 nM) | level (log10) ([3]; 6700 nM) | level (log10) ([3]; 20000 nM) | level (log10) ([3]; 60000 nM) | level (log10) ([4]; 6700 nM) | level (log10) ([4]; 20000 nM) | level (log10) ([4]; 60000 nM) | level (log10) ([5]; 6700 nM) | level (log10) ([5]; 20000 nM) | level (log10) ([5]; 60000 nM) | level (log10) (Methotrexate; 1500 nM) | level (log10) (Methotrexate; 4400 nM) | level (log10) (Methotrexate; 13000 nM) | level (log10) (Methotrexate; 40000 nM)
3C:CD106/VCAM-1 | -0.03 ± 0.021 | -0.028 ± 0.035 | -0.018 ± 0.02 | -0.027 ± 0.0071 | -0.089 ± 0.0099 | -0.01 ± 0.0057 | -0.01 ± 0.016 | -0.0015 ± 0.0035 | -0.022 ± 0.028 | 0.006 ± 0.024 | 0.005 ± 0.021 | 0.0145 ± 0.029 | 0.007 ± 0.016 | 0.017 ± 0.011 | -0.0115 ± 0.044 | -0.005 ± 0.021 | 0.0055 ± 0.035 | -0.0135 ± 0.026
MyoF:Collagen I | 0.004 ± 0.013 | -0.0005 ± 0.025 | 0.0145 ± 0.00071 | -0.0255 ± 0.037 | -0.128 ± 0.033 | 0.004 ± 0.0014 | -0.002 ± 0.016 | 0.0065 ± 0.026 | 0.004 ± 0.013 | -0.0155 ± 0.015 | 0.018 | 0.0055 ± 0.013 | 0.001 ± 0.021 | 0.018 ± 0.027 | -0.0115 ± 0.049 | -0.01 ± 0.059 | 0.01 ± 0.035 | 0.004 ± 0.038
HDF3CGF:PAI-I | -0.05 ± 0.073 | -0.0215 ± 0.083 | -0.0155 ± 0.043 | 0.0475 ± 0.052 | -0.0845 ± 0.046 | -0.0015 ± 0.012 | 0.0075 ± 0.03 | 0.0075 ± 0.054 | 0.0085 ± 0.044 | -0.011 ± 0.014 | -0.02 ± 0.021 | -0.045 ± 0.011 | -0.018 ± 0.1 | 0.0135 ± 0.0035 | -0.0705 ± 0.14 | -0.0725 ± 0.079 | -0.0445 ± 0.079 | -0.081 ± 0.16
lMphg:IL-1alpha | -0.0255 ± 0.052 | -0.041 ± 0.086 | -0.03 ± 0.082 | 0.0035 ± 0.0035 | 0.0395 ± 0.04 | -0.0075 ± 0.005 | -0.0125 ± 0.005 | 0.0115 ± 0.015 | 0.026 ± 0.048 | 0.0125 ± 0.032 | 0.007 ± 0.021 | 0.01 ± 0.0057 | 0.0245 ± 0.012 | 0.03 ± 0.034 | -0.0335 ± 0.097 | -0.0545 ± 0.083 | -0.041 ± 0.057 | -0.028 ± 0.047
HDF3CGF:MMP-1 | 0.0195 ± 0.012 | 0.013 ± 0.0042 | 0.018 | -0.0195 ± 0.0092 | -0.0935 ± 0.0078 | -0.008 ± 0.0028 | 0.006 ± 0.0014 | 0.004 ± 0.0042 | -0.009 ± 0.0028 | -0.0285 ± 0.028 | -0.0365 ± 0.026 | 0 ± 0.023 | 0.0015 ± 0.0064 | -0.0005 ± 0.016 | -0.0085 ± 0.005 | -0.0135 ± 0.0021 | 0.0005 ± 0.0021 | 0.0065 ± 0.028
CASM3C:CD87/uPAR | -0.014 ± 0.045 | -0.0225 ± 0.012 | -0.015 ± 0.038 | -0.046 ± 0.018 | -0.0065 ± 0.005 | -0.009 ± 0.028 | -0.0135 ± 0.029 | -0.0045 ± 0.025 | 0 ± 0.027 | 0.0025 ± 0.0078 | -0.0165 ± 0.037 | -0.018 ± 0.0099 | -0.0235 ± 0.029 | -0.018 ± 0.0028 | 0.0385 ± 0.037 | 0.033 ± 0.023 | 0.0585 ± 0.015 | 0.04 ± 0.048
CASM3C:HLA-DR | -0.0095 ± 0.0035 | -0.0025 ± 0.033 | 0.002 ± 0.0057 | -0.018 ± 0.0042 | -0.0365 ± 0.022 | -0.0045 ± 0.019 | -0.015 ± 0.0042 | 0.019 ± 0.027 | 0.0045 ± 0.0064 | -0.017 ± 0.014 | -0.0115 ± 0.00071 | -0.0035 ± 0.0078 | 0.0125 ± 0.0021 | 0.0135 ± 0.015 | 0.0795 ± 0.0021 | -0.004 ± 0.068 | -0.079 ± 0.013 | 0.0375 ± 0.015
HDF3CGF:CXCL9/MIG | 0.0125 ± 0.018 | -0.0055 ± 0.0064 | 0.0075 ± 0.012 | -0.0495 ± 0.012 | -0.0855 ± 0.0064 | -0.0045 ± 0.0092 | 0.0035 ± 0.0092 | 0.006 ± 0.02 | -0.01 ± 0.02 | -0.0025 ± 0.029 | -0.023 ± 0.025 | -0.0185 ± 0.005 | -0.024 ± 0.0071 | -0.0395 ± 0.011 | 0.002 ± 0.045 | -0.003 ± 0.023 | -0.0205 ± 0.036 | -0.0165 ± 0.057
HDF3CGF:CXCL8/IL-8 | 0.0025 ± 0.012 | -0.0015 ± 0.005 | 0.013 ± 0.018 | 0.01 ± 0.0014 | 0.015 ± 0.0071 | -0.0065 ± 0.0035 | 0.01 ± 0.0071 | 0.01 ± 0.0014 | -0.011 ± 0.016 | -0.0025 ± 0.0021 | 0.007 ± 0.017 | 0.0005 ± 0.0021 | -0.0045 ± 0.0092 | 0.006 ± 0.0028 | -0.0035 ± 0.011 | -0.0075 ± 0.0064 | 0.0145 ± 0.0035 | 0.004 ± 0.0085
BE3C:MMP-9 | -0.0005 ± 0.00071 | -0.003 ± 0.018 | -0.0325 ± 0.042 | 0.0275 ± 0.013 | -0.269 ± 0.0099 | 0.0035 ± 0.032 | 0.014 ± 0.028 | 0.031 ± 0.045 | -0.0055 ± 0.005 | -0.0045 ± 0.018 | 0.0135 ± 0.0092 | 0.0155 ± 0.0092 | -0.0075 ± 0.016 | 0.032 ± 0.025 | 0.014 ± 0.021 | -0.0025 ± 0.011 | 0.0045 ± 0.079 | 0.0085 ± 0.015
CASM3C:CD142/Tissue Factor | -0.0245 ± 0.028 | -0.0635 ± 0.037 | -0.0395 ± 0.035 | -0.144 ± 0.013 | -0.105 ± 0.021 | -0.0265 ± 0.015 | -0.0055 ± 0.0064 | 0.0285 ± 0.018 | -0.0115 ± 0.018 | 0.0115 ± 0.015 | 0.0095 ± 0.03 | -0.006 ± 0.021 | 0 ± 0.038 | 0.0045 ± 0.022 | 0.0505 ± 0.005 | 0.0195 ± 0.049 | 0.0265 ± 0.042 | 0.0305 ± 0.026
MyoF:Collagen III | -0.0115 ± 0.0078 | -0.004 ± 0.035 | -0.003 ± 0.021 | -0.059 ± 0.018 | -0.141 ± 0.0078 | 0.0085 ± 0.012 | 0.0015 ± 0.0078 | 0.003 ± 0.017 | -0.013 ± 0.016 | -0.032 ± 0.0028 | -0.0045 ± 0.011 | 0.0075 ± 0.0021 | 0 ± 0.0014 | 0.0085 ± 0.0078 | -0.011 ± 0.04 | -0.001 ± 0.065 | 0.009 ± 0.069 | 0.014 ± 0.041
3C:CD62E/E-Selectin | -0.0315 ± 0.049 | -0.02 ± 0.038 | -0.0025 ± 0.012 | -0.0365 ± 0.036 | -0.019 ± 0.0014 | -0.004 ± 0.0014 | -0.0055 ± 0.032 | 0.0105 ± 0.012 | -0.019 ± 0.011 | -0.0035 ± 0.019 | 0.0045 ± 0.018 | -0.005 ± 0.011 | -0.014 ± 0.0042 | -0.0015 ± 0.013 | 0.007 ± 0.0057 | -0.0145 ± 0.0035 | -0.004 ± 0.02 | 0.01 ± 0.011
KF3CT:uPA | 0.003 ± 0.0099 | 0.0235 ± 0.00071 | 0.015 ± 0.014 | 0.021 ± 0.0014 | 0.0195 ± 0.005 | 0.01 ± 0.016 | -0.0005 ± 0.00071 | 0.0005 ± 0.022 | 0 ± 0.0042 | 0 ± 0.0028 | -0.0075 ± 0.028 | -0.0035 ± 0.011 | -0.008 ± 0.021 | -0.003 ± 0.0042 | -0.0115 ± 0.0021 | -0.0195 ± 0.00071 | -0.031 ± 0.057 | -0.045 ± 0.059
HDF3CGF:TIMP-1 | 0.002 ± 0.014 | 0.012 ± 0.025 | 0.0395 ± 0.05 | 0.069 ± 0.025 | 0.0215 ± 0.011 | -0.006 ± 0.017 | -0.001 ± 0.034 | 0.02 ± 0.057 | -0.0045 ± 0.047 | -0.0015 ± 0.00071 | 0.0035 ± 0.084 | -0.0075 ± 0.0078 | -0.007 ± 0.024 | -0.019 ± 0.03 | -0.08 ± 0.073 | -0.047 ± 0.082 | -0.0525 ± 0.14 | -0.0755 ± 0.1
MyoF:Collagen IV | -0.021 ± 0.099 | -0.0295 ± 0.11 | -0.0075 ± 0.069 | 0.018 ± 0.1 | 0.534 ± 0.07 | 0.002 ± 0.03 | -0.009 ± 0.044 | 0.0145 ± 0.063 | -0.0075 ± 0.00071 | -0.037 ± 0.0057 | -0.0225 ± 0.025 | -0.0185 ± 0.019 | 0.004 ± 0.065 | 0.014 ± 0.075 | -0.0195 ± 0.025 | 0.004 ± 0.033 | 0.007 ± 0.061 | -0.014 ± 0.016

From the supplement of paper PMC10331698
